Patent US20260022096A1, “NOVEL SULFONAMIDES AND THEIR USE AS NEUROPROTECTIVE AND/OR NEURORESTORATIVE AGENTS” (GENECODE, priority 2022, published 2026)
pEC50: −log10 of the molar value.

Target: T1, GFRα1-RET (Homo sapiens, UniProt P56159)
T1 construct: expressed in transfected cells; host or cells: MG87 murine fibroblasts, stably transfected
T1 sequence (P56159 25-429 limits assumed): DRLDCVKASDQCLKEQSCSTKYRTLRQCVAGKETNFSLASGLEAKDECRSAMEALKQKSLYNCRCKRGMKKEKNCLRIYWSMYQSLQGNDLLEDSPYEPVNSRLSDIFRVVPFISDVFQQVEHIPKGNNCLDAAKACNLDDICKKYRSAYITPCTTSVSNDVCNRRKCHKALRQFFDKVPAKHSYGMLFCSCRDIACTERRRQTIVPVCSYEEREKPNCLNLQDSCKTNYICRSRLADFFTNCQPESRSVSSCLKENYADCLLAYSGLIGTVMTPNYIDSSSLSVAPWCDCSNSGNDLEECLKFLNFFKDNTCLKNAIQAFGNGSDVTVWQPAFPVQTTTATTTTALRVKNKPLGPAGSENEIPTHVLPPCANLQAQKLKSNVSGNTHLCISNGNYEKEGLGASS
Test: Elk1 reporter-gene (luciferase) assay in cells expressing GFRα1-RET
Format: cell-based
Details: MG87 murine fibroblasts stably transfected with PathDetect Elk-1, GFRα1 and RET, 6 concentrations, agonist/activator activity
Experimental: For ECso determination, a dose-response test was performed using 6 concentrations of each tested compound. Dose-response curves were fitted using the sigmoidal dose-response (variable slope) analysis in GraphPad Prism program (Graph Pad Inc) and ECso of agonist/activator activity was calculated. Dose-response experiments were all performed in duplicate, two times independently.

SMILES	pEC50
Cc1cc(S(=O)(=O)N2CCC(c3ccc(F)cc3)CC2)cc(N2[C@@H]3CC[C@H]2CN(C(=O)c2ccc(F)cc2Cl)C3)c1O [compound 091, (2-chloro-4-fluoro-phenyl)-[(1S,5R)-8-[5-[[4-(4-fluorophenyl)-1-piperidyl]sulfonyl]-2-hydroxy-3-methyl-phenyl]-3,8-diazabicyclo[3.2.1]octan-3-yl]methanone]	> 6.00
CCCN(C)S(=O)(=O)c1ccc(OC)c(N2CCN(C(=O)c3ccc(F)cc3Cl)CC2C)c1 (racemic) [compound 001, 4-methoxy-N-methyl-N-propyl-3-[rac-(2S)-4-(2-chloro-4-fluoro-benzoyl)-2-methyl-piperazin-1-yl]benzenesulfonamide]	5.00 to 6.00
O=C(c1ccc(F)cc1Cl)N1C[C@H]2CC[C@@H](C1)N2c1cc(S(=O)(=O)N2CCC(c3ccc(F)cc3)CC2)ccc1O [compound 065, (2-chloro-4-fluoro-phenyl)-[(1S,5R)-8-[5-[[4-(4-fluorophenyl)-1-piperidyl]sulfonyl]-2-hydroxy-phenyl]-3,8-diazabicyclo[3.2.1]octan-3-yl]methanone]	> 6.00
CN(C(C)(C)C)S(=O)(=O)c1cc(Cl)c(Cl)c(N2[C@@H]3CC[C@H]2CN(C(=O)c2ccc(F)cc2Cl)C3)c1 [compound 133, N-tert-butyl-3,4-dichloro-5-[(1S,5R)-3-(2-chloro-4-fluoro-benzoyl)-3,8-diazabicyclo[3.2.1]octan-8-yl]-N-methyl-benzenesulfonamide]	> 6.00
CCCN(C)S(=O)(=O)c1ccc(Cl)c(N2[C@@H]3CC[C@H]2CN(C(=O)c2ccc(F)cc2Cl)C3)c1 [compound 115, 4-chloro-3-[(1S,5R)-3-(2-chloro-4-fluoro-benzoyl)-3,8-diazabicyclo[3.2.1]octan-8-yl]-N-methyl-N-propyl-benzenesulfonamide]	> 6.00
CCCN(C)S(=O)(=O)c1ccc(OC)c(N2CCN(C(=O)c3ccc(F)cc3C(F)(F)F)CC2CC)c1 (racemic) [compound 017, 4-methoxy-N-methyl-N-propyl-3-[rac-(2S)-2-ethyl-4-[4-fluoro-2-(trifluoromethyl)benzoyl]piperazin-1-yl]benzenesulfonamide]	4.30 to 5.00
COc1ccc(S(=O)(=O)N2CCN(CC(O)c3ccc(F)cc3)CC2)cc1N1C2CCC1CN(C(=O)c1ccc(F)cc1Cl)C2 (racemic) [compound 128, (2-chloro-4-fluoro-phenyl)-[(1S,5R)-8-[5-[4-[(2RS)-2-(4-fluorophenyl)-2-hydroxy-ethyl]piperazin-1-yl]sulfonyl-2-methoxy-phenyl]-3,8-diazabicyclo[3.2.1]octan-3-yl]methanone]	> 6.00
COc1ccc(S(=O)(=O)N2CCC(CCc3ccccc3)CC2)cc1N1[C@@H]2CC[C@H]1CN(C(=O)c1ccc(F)cc1Cl)C2 [compound 010, (2-chloro-4-fluoro-phenyl)-[(1S,5R)-8-[2-methoxy-5-[[4-(2-phenylethyl)-1-piperidyl]sulfonyl]phenyl]-3,8-diazabicyclo[3.2.1]octan-3-yl]methanone]	> 6.00
CC(C)(C)NS(=O)(=O)c1cc2c(c(N3[C@@H]4CC[C@H]3CN(C(=O)c3ccc(F)cc3Cl)C4)c1)OCC2 [compound 057, N-tert-butyl-7-[(1S,5R)-3-(2-chloro-4-fluoro-benzoyl)-3,8-diazabicyclo[3.2.1]octan-8-yl]-2,3-dihydrobenzofuran-5-sulfonamide]	> 6.00
CN(C(C)(C)C)S(=O)(=O)c1cc(Cl)c(OCc2ccncc2)c(N2[C@@H]3CC[C@H]2CN(C(=O)c2ccc(F)cc2Cl)C3)c1 [compound 138, N-tert-butyl-3-chloro-5-[(1S,5R)-3-(2-chloro-4-fluoro-benzoyl)-3,8-diazabicyclo[3.2.1]octan-8-yl]-N-methyl-4-(4-pyridylmethoxy) benzenesulfonamide]	> 6.00
CC(C)NS(=O)(=O)c1cc(Cl)c(O)c(N2[C@@H]3CC[C@H]2CN(C(=O)c2ccc(F)cc2Cl)C3)c1 [compound 100]	> 6.00
COc1ccc(S(=O)(=O)N2CCN(c3ncccn3)CC2)cc1N1[C@@H]2CC[C@H]1CN(C(=O)c1ccc(F)cc1Cl)C2 [compound 013]	5.00 to 6.00
Cc1ccc(S(=O)(=O)N2CCC(c3ccccc3)CC2)cc1N1[C@@H]2CC[C@H]1CN(C(=O)c1ccc(F)cc1Cl)C2 [compound 067, (2-chloro-4-fluoro-phenyl)-[(1S,5R)-8-[2-methyl-5-[(4-phenyl-1-piperidyl)sulfonyl]phenyl]-3,8-diazabicyclo[3.2.1]octan-3-yl]methanone]	> 6.00
O=C(c1ccc(F)cc1Cl)N1C[C@H]2CC[C@@H](C1)N2c1cc(S(=O)(=O)N2CCC(F)CC2)cc(Cl)c1O [compound 097, (2-chloro-4-fluoro-phenyl)-[(1S,5R)-8-[3-chloro-5-[(4-fluoro-1-piperidyl)sulfonyl]-2-hydroxy-phenyl]-3,8-diazabicyclo[3.2.1]octan-3-yl]methanone]	> 6.00
COc1ccc(S(=O)(=O)N2C[C@H]3CCCC[C@H]3C2)cc1N1[C@@H]2CC[C@H]1CN(C(=O)c1ccc(F)cc1Cl)C2 [compound 015, [(1S,5R)-8-[5-[[(3aS,7aR)-1,3,3a,4,5,6,7,7a-octahydroisoindol-2-yl]sulfonyl]-2-methoxy-phenyl]-3,8-diazabicyclo[3.2.1]octan-3-yl]-(2-chloro-4-fluoro-phenyl)methanone]	> 6.00
COc1ccc(S(=O)(=O)N2CCC(=Cc3ccccc3)CC2)cc1N1[C@@H]2CC[C@H]1CN(C(=O)c1cc(F)c(F)cc1Cl)C2 [compound 053, [(1S,5R)-8-[5-[(4-benzylidene-1-piperidyl)sulfonyl]-2-methoxy-phenyl]-3,8-diazabicyclo[3.2.1]octan-3-yl]-(2-chloro-4,5-difluoro-phenyl)methanone]	> 6.00
O=C(c1ccc(F)cc1Cl)N1C[C@H]2CC[C@@H](C1)N2c1cc(S(=O)(=O)N2CCC(c3ccccc3)CC2)cc(C(F)(F)F)c1O [compound 087]	> 6.00
COc1ccc(S(=O)(=O)N2CCC(Oc3ccccc3)C2)cc1N1C2CCC1CN(C(=O)c1ccc(F)cc1Cl)C2 (racemic) [compound 126, (2-chloro-4-fluoro-phenyl)-[(1S,5R)-8-[2-methoxy-5-[(3SR)-3-phenoxypyrrolidin-1-yl]sulfonyl-phenyl]-3,8-diazabicyclo[3.2.1]octan-3-yl]methanone]	> 6.00
COc1ccc(S(=O)(=O)N2CCC(OCc3ccccc3)C2)cc1N1C2CCC1CN(C(=O)c1ccc(F)cc1Cl)C2 (racemic) [compound 037, [(1S,5R)-8-[5-[(3SR)-3-benzyloxypyrrolidin-1-yl]sulfonyl-2-methoxy-phenyl]-3,8-diazabicyclo[3.2.1]octan-3-yl]-(2-chloro-4-fluoro-phenyl)methanone]	5.00 to 6.00
COc1ccc(S(=O)(=O)N2CCC(c3ccccc3)CC2)cc1N1[C@@H]2CC[C@H]1CN(C(=O)c1cc(F)c(F)cc1Cl)C2 [compound 049, (2-chloro-4,5-difluoro-phenyl)-[(1S,5R)-8-[2-methoxy-5-[(4-phenyl-1-piperidyl)sulfonyl]phenyl]-3,8-diazabicyclo[3.2.1]octan-3-yl]methanone]	> 6.00
CC(C)(C)NS(=O)(=O)c1cc(Cl)c(OCCO)c(N2[C@@H]3CC[C@H]2CN(C(=O)c2ccc(F)cc2Cl)C3)c1 [compound 112]	> 6.00
O=C(c1ccc(F)cc1Cl)N1C[C@H]2CC[C@@H](C1)N2c1cc(S(=O)(=O)N2CCC(c3ccccc3)CC2)cc2c1OCO2 [compound 117, (2-chloro-4-fluoro-phenyl)-[(1S,5R)-8-[6-[(4-phenyl-1-piperidyl)sulfonyl]-1,3-benzodioxol-4-yl]-3,8-diazabicyclo[3.2.1]octan-3-yl]methanone]	> 6.00
O=C(c1ccc(F)cc1Cl)N1C[C@H]2CC[C@@H](C1)N2c1cc(S(=O)(=O)N2CCC(c3ccccc3)CC2)ccc1OCCO [compound 076]	> 6.00
O=C(c1ccc(F)cc1Cl)N1C[C@H]2CC[C@@H](C1)N2c1cc(S(=O)(=O)N2CCC(c3ccccc3)CC2)ccc1O [compound 063, (2-chloro-4-fluoro-phenyl)-[(1S,5R)-8-[2-hydroxy-5-[(4-phenyl-1-piperidyl)sulfonyl]phenyl]-3,8-diazabicyclo[3.2.1]octan-3-yl]methanone]	> 6.00
CCCN(C)S(=O)(=O)c1ccc(F)c(N2[C@@H]3CC[C@H]2CN(C(=O)c2ccc(F)cc2Cl)C3)c1 [compound 026]	5.00 to 6.00
O=C(c1ccc(F)cc1Cl)N1C[C@H]2CC[C@@H](C1)N2c1cc(S(=O)(=O)N2CCN(CCc3ccc(Cl)cc3)CC2)cc2c1OCC2 [compound 060, (2-chloro-4-fluoro-phenyl)-[(1S,5R)-8-[5-[4-[2-(4-chlorophenyl)ethyl]piperazin-1-yl]sulfonyl-2,3-dihydrobenzofuran-7-yl]-3,8-diazabicyclo[3.2.1]octan-3-yl]methanone]	> 6.00
CCc1cc(S(=O)(=O)N2CCC(c3ccccc3)CC2)cc(N2[C@@H]3CC[C@H]2CN(C(=O)c2ccc(F)cc2Cl)C3)c1O [compound 094, (2-chloro-4-fluoro-phenyl)-[(1S,5R)-8-[3-ethyl-2-hydroxy-5-[(4-phenyl-1-piperidyl)sulfonyl]phenyl]-3,8-diazabicyclo[3.2.1]octan-3-yl]methanone]	> 6.00
